The values below come from the NIST ThermoML archive (doi:10.1007/s10765-014-1759-1).

± gives the expanded uncertainty stated by the source.

The conditions of the data set: 101.33 kPa, Liquid; for viscosity: Capillary tube (Ostwald / Ubbelohde) method; for mass density: Vibrating tube method.

On to `C1CCCCC1` [cyclohexane], for which, under “293.15 K”, the viscosity amounted to 0.978 ± 0.0084 mPa·s and the mass density is given as 778.7 ± 0.3 kg/m3. For the setting “298.15 K”, the viscosity is recorded as 0.8931 ± 0.0079 mPa·s and the mass density came out at 773.9 ± 0.3 kg/m3.
For `Cc1ccccc1` [toluene], for the setting “293.15 K”, the viscosity is on record as 0.5891 ± 0.0061 mPa·s and the mass density is 866.7 ± 0.6 kg/m3. Where the note is “298.15 K”, the viscosity is on record as 0.5528 ± 0.006 mPa·s and the mass density was found to be 862 ± 0.6 kg/m3.
On the same counts, the results for `CCCCCCCC` [octane] are 0.5433 ± 0.0059 mPa·s, 702.5 ± 0.6 kg/m3, 0.5108 ± 0.0057 mPa·s and 698.5 ± 0.6 kg/m3.
In the case of `CCCCCCC` [heptane], for the setting “293.15 K”, the viscosity is recorded as 0.412 ± 0.0053 mPa·s and the mass density was determined as 684 ± 0.6 kg/m3. Besides, where the note is “298.15 K”, the viscosity came out at 0.3895 ± 0.0052 mPa·s and the mass density turned out to be 679.7 ± 0.6 kg/m3.
On the same counts, the results for `CCc1ccccc1` [ethylbenzene] are 0.6735 ± 0.0066 mPa·s, 867.1 ± 0.6 kg/m3, 0.6318 ± 0.0064 mPa·s and 862.7 ± 0.6 kg/m3.
